In this assay the target is T1, glucokinase (GK) (Homo sapiens, UniProt P35557).
T1 construct: I.D. No. 1 corresponds to residues 12-465 of glucokinase; made in house; host or cells: E. coli DH10b-T1r
T1 sequence (P35557 with tags, fused parts or gaps isoform P35557-2): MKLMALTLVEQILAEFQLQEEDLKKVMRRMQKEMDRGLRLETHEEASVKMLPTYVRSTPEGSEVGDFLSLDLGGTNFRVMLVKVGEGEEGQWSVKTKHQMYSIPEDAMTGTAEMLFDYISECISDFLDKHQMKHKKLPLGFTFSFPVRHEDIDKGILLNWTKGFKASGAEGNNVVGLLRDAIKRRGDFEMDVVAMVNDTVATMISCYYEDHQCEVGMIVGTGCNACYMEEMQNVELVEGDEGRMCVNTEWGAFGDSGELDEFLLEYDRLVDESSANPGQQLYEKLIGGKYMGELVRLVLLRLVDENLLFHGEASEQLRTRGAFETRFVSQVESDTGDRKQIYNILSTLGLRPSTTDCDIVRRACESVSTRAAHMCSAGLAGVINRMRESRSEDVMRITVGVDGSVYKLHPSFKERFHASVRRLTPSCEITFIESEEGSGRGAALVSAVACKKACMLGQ
The assay is described as follows: enzymatic glucokinase activity assay (ATP consumption, KinaseGlo luminescence). The assay is classed as biochemical. The following applies: recombinant GK residues 12-465; 5 μM ATP, 5 mM Glucose; Kact = concentration that displays 50% of the maximal increase in GK activity; read-out: pKact. An outline of the steps:
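Recombinant human glucokinase expressed in E. coli was run in 25 mM Hepes pH 7.2 with 10 mM MgCl2, 1 mM DTT, 5 μM ATP, 5 mM glucose and 2% DMSO for 60 min at room temperature. Remaining ATP was read by KinaseGlo luminescence; pKact came from non-linear curve fits.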

Structures are written as SMILES. Counter-ions that a name gives are not always drawn.

With `Cc1cc(S(=O)(=O)C2CCS(=O)(=O)CC2)cc(=O)n1[C@@H](CC1CCCCC1)C(=O)Nc1ncc(Cl)s1` [Example 187, (S)-N-(5-chlorothiazol-2-yl)-2-(4-(1,1-dioxotetrahydrothiopyran-4-ylsulfonyl)-6-methyl-2-oxopyridin-1(2H)-yl)-3-cyclohexyipropanamide], the EC50 was 1.58 to 15.8 µM.

As to `O=C(Nc1ncc(Cl)s1)C(CC1CCOCC1)n1cc(Cl)c(S(=O)(=O)C2CCCC2)cc1=O` (stereo not drawn) [Example 185, 2-(5-chloro-4-(cyclopentylsulfonyl)-2-oxopyridin-1(2H)-yl)-N-(5-chlorothiazol-2-yl)-3-(tetrahydro-2H-pyran-4-yl)propanamide], the EC50 lay in the range of 1.58 to 15.8 µM.

Take `Cc1cc(S(=O)(=O)Cc2ccco2)cc(=O)n1[C@H](CC1CCOCC1)C(=O)Nc1ncc(Cl)s1` [Example 142, (R)-N-(5-chlorothiazol-2-yl)-2-(4-(furan-2-ylmethylsulfonyl)-6-methyl-2-oxopyridin-1(2H)-yl)-3-(tetrahydro-2H-pyran-4-yl)propanamide]: the EC50 is above 15.8 µM.

In the case of `Cc1cc(O)cc(=O)n1C(CC1CCCCC1)C(=O)Nc1nccs1` (stereo not drawn) [Example 1, 3-cyclohexyl-2-(4-hydroxy-6-methyl-2-oxopyridin-1(2H)-yl)-N-(thiazol-2-yl)propanamide trifluoroacetic acid salt], the EC50 was above 15.8 µM.

On to `CN1CCN(Cc2cnc(NC(=O)C(CC3CCOCC3)n3ccc(S(=O)(=O)C4CC4)cc3=O)s2)CC1` (stereo not drawn) [Example 147, 2-(4-(cyclopropylsulfonyl)-2-oxopyridin-1(2H)-yl)-N-(5-((4-methylpiperazin-1-yl)methyl)thiazol-2-yl)-3-(tetrahydro-2H-pyran-4-yl)propanamide], for which the EC50 was above 15.8 µM.

For the compound `O=C(Nc1nc2ccc(F)cc2s1)C(CC1CCOCC1)n1ccc(S(=O)(=O)C2CC2)cc1=O` (stereo not drawn) [Example 131, 2-(4-(cyclopropylsulfonyl)-2-oxopyridin-1(2H)-yl)-N-(6-fluorobenzo[d]thiazol-2-yl)-3-(tetrahydro-2H-pyran-4-yl)propanamide], the EC50 is 1.58 to 15.8 µM.

Consider `Cc1cc(S(=O)(=O)C2CCOCC2)cc(=O)n1[C@@H](CC1CCCC1)C(=O)Nc1ncc(Cl)s1` [Example 191, (S)-N-(5-chlorothiazol-2-yl)-3-cyclopentyl-2-(6-methyl-2-oxo-4-(tetrahydro-2H-pyran-4-ylsulfonyl)pyridin-1(2H)-yl)propanamide], for which the EC50 lay within 1.58 to 15.8 µM.

Turning to `Cc1cc(-c2cccnc2)cc(=O)n1[C@@H](CC1CCCCC1)C(=O)Nc1nccs1` [Example 100, (S)-3-cyclohexyl-2-(6-methyl-2-oxo-4-(pyridin-3-yl)pyridin-1(2H)-yl)-N-(thiazol-2-yl)propanamide], the EC50 is 1.58 to 15.8 µM.

Consider `COc1ccc2nc(NC(=O)[C@@H](CC3CCCCC3)n3c(C)cc(S(=O)(=O)C4CC4)cc3=O)sc2n1` [Example 122, (R)-3-cyclohexyl-2-(4-(cyclopropylsulfonyl)-6-methyl-2-oxopyridin-1(2H)-yl)-N-(5-methoxythiazolo[5,4-b]pyridin-2-yl)propanamide], for which the EC50 lay within 1.58 to 15.8 µM.

`Cc1cc(S(=O)(=O)C2CCCC2)cc(=O)n1[C@@H](CC1CCOCC1)C(=O)Nc1ccc(C(N)=O)cn1` [Example 182, (S)-6-(2-(4-(cyclopentylsulfonyl)-6-methyl-2-oxopyridin-1(2H)-yl)-3-(tetrahydro-2H-pyran-4-yl)propanamido)nicotinamide]: the EC50 lay in the range of 1.58 to 15.8 µM.

Regarding `Cc1c(S(=O)(=O)C2CCCC2)c(C)c(=O)n(C(CC2CCOCC2)C(=O)Nc2ncc(Cl)s2)c1C` (stereo not drawn) [Example 118, N-(5-chlorothiazol-2-yl)-2-(4-(cyclopentylsulfonyl)-3,5,6-trimethyl-2-oxopyridin-1(2H)-yl)-3-(tetrahydro-2H-pyran-4-yl)propanamide], the EC50 is below 1.58 µM.

For the compound `O=C(Nc1ncc(Cl)s1)[C@@H](CC1CCOCC1)n1cc(Cl)c(S(=O)(=O)C2CC2)cc1=O` [Example 195, (R)-2-(5-chloro-4-(cyclopropylsulfonyl)-2-oxopyridin-1(2H)-yl)-N-(5-chlorothiazol-2-yl)-3-(tetrahydro-2H-pyran-4-yl)propanamide], the EC50 was above 15.8 µM.

(Values after patent US8163779B2, “Glucokinase activators” (Takeda San Diego, Inc., priority 2006, dated 2012).)
